Reference: patent US8841271B2, “Oligonucleotide complex compositions and methods of use as gene alteration tools” (The General Hospital Corporation, priority 2004, dated 2014)
“And” between values parts separate entries of the source, which are not always exact repeats. Equal entries are not always repeated. “Also recorded” adds a separate entry of the source. In the oligonucleotide strings, read from the 5' end, every base follows the letter of its sugar. An asterisk marks phosphorothioate; unmarked linkages are phosphodiester. Other units and linkages are bracketed, terminal groups are in braces. A string of capitals states the bases alone. m = 2'-O-methyl; r = 2'-OH (RNA); {P} = phosphate

Key:
CFTR = experiment: DPC block of cAMP-activated whole cell currents in treated Δ508 cells; format: cell-based, human; conditions: DPC 500 μM
Protocol: Whole-cell and excised inside-out patches were obtained to assess cAMP-PKA dependent anion currents in treated Δ508 cells. Currents and command voltages were obtained and driven. respectively, with a Dagan 3900 amplifier using a 1 gigaohm headstage. The excised patch-clamp configuration was carried out as previously described [Reisin et al., (1994) J. Biol. Chem. 269, 20584-20591]. Single channel data were obtained between ±100 mV in symmetrical Cl^−. Data were further analyzed as previously described [Reisin et al., (1994) J. Biol. Chem. 269, 20584-20591]. The pipette and bathing solution contained, in mmol/L, either: NaCl 140, MgCl2 1.0, KCl 5, and N-2-hydroxyethylpiperazine N′-2-ethanesulfonic acid (HEPES) 10, at pH 7.4, or MgCl2 70, HEPES 10, pH 7.4. The bathing solution also contained 1.0 mmol/L CaCl2. Whenever indicated, the patch-pipette was filled up to at least one third of its height with either MgATP or TrisATP (100 mmol/L, pH 7.4 adjusted with N-methyl-glucamine) as previously reported [Reisin et al., (1994) J. Biol. Chem. 269, 20584-20591]. Experiments were conducted at room temperature. The cAMP stimulatory mixture contained 8-Br-cAMP, isobutyl-methyl-xanthine (IBMX) and forskolin. Final concentrations were 500 μmol/L, […], and 10 μmol/L, respectively. The catalytic subunit of PKA was used at a final concentration of 20 μg/ml. […]

CFTR protein = experiment: Western blot with antibodies to epitopes upstream and downstream of the Δ508 deletion; format: cell-based, human; conditions: both antibodies same level of protein, no truncated or degraded peptides
Protocol: (§1) Without being limited by any particular mechanism, the hypothesis was tested as to whether base insertion in the treated Δ508 cells has occurred at the RNA level. It was possible that the repair mechanism was carried out instead of/or in addition to, the DNA level, by way of reverse transcription extending back to the genome. This was tested by RT-PCR analysis of DNA from subcloned Δ508 cells originally treated with CF4/CF6. No evidence was obtained that the restored phenotype was carried back to the inheritable DNA genome level was obtained. Western blot analysis was conducted with antibodies targeted to epitopes upstream and downstream of the Δ508 deletion, respectively.

[1] = tested on: Δ508CFTR expressing cells; experiment: Whole-cell patch clamp, cAMP-activated whole cell currents; format: cell-based, mouse
Protocol: (§2) Mouse mammary carcinoma cells (c127i) transfected with human epithelial CFTR wild type (WT1) or Δ508 CFTR cells [Cannello et al., (1994), J. Biol. Chem. 269, 11224-11232; Dechecchi et al., (1993) J. Biol. Chem. 268, 11321-11325] were used for these studies. The transfected c127i cells are high level producers of Δ508 CFTR mRNA. Cells were grown and maintained in Dulbecco's medium (DMEM), supplemented with 10% fetal bovine serum and 1% L-glutamine, as previously reported [Verkman, (1990) Am. J. Physiol. 259, C375-C388].
Whole-cell and excised inside-out patches were obtained to assess cAMP-PKA dependent anion currents in treated Δ508 cells. Currents and command voltages were obtained and driven. respectively, with a Dagan 3900 amplifier using a 1 gigaohm headstage. The excised patch-clamp configuration was carried out as previously described [Reisin et al., (1994) J. Biol. Chem. 269, 20584-20591]. Single channel data were obtained between ±100 mV in symmetrical Cl^−. Data were further analyzed as previously described [Reisin et al., (1994) J. Biol. Chem. 269, 20584-20591]. The pipette and bathing solution contained, in mmol/L, either: NaCl 140, MgCl2 1.0, KCl 5, and N-2-hydroxyethylpiperazine N′-2-ethanesulfonic acid (HEPES) 10, at pH 7.4, or MgCl2 70, HEPES 10, pH 7.4. The bathing solution also contained 1.0 mmol/L CaCl2. Whenever indicated, the patch-pipette was filled up to at least one third of its height with either MgATP or TrisATP (100 mmol/L, pH 7.4 adjusted with N-methyl-glucamine) as previously reported [Reisin et al., (1994) J. Biol. Chem. 269, 20584-20591]. Experiments were conducted at room temperature. The cAMP stimulatory mixture contained 8-Br-cAMP, isobutyl-methyl-xanthine (IBMX) and forskolin. Final concentrations were 500 μmol/L, […], and 10 μmol/L, respectively. The catalytic subunit of PKA was used at a final concentration of 20 μg/ml. The Cl^− channel blocker, diphenylamine-2-carboxylate (DPC) was kept in a 100-fold stock solution (20 mmol/L) in 50% water/ethanol. DPC was used at a final concentration of 500 μM.
To restore the normal (wild type) phenotype in cells expressing Δ508CFTR, modified oligonucleotides were constructed and their effect on ion transport was assessed in Δ508 cells treated with these constructs. In a first step, a modified oligodeoxyribonucleotide was synthesized, containing phosphorothioate (PS) and PS plus 2′-O-methyl modifications for the central and flanking segments, respectively. This oligonucleotide was designed to hybridize in Watson-Crick base complementarity to the region of Δ508 mRNA where the PS section would be directly opposite the Δ508 mRNA position, flanked 3′- and 5′- by adjacent nucleotides complementary to the Δ508 mRNA. Accordingly, the PS segment would activate endogenous RNase H, and cleave those bases opposite the PS complementary oligonucleotide (10 μM). The insertion of bases then occurs in a second step.
For the second or insertion step, two complementary single strand oligonucleotides, CF4 and CF6 (Table 1, Scheme 1A) were constructed. The annealed CF4/CF6 duplex (10 μM final concentration) was added to the Δ508 CFTR cells after 2 hours incubation, then washout, in the deletion step. Next, following overnight or up to 72 hour incubation in the second (insertion) step, patch clamp examination was conducted on the treated cells.

DNA genome of Δ508 cells = experiment: RT-PCR analysis of DNA from subcloned treated Δ508 cells; format: cell-based; conditions: subcloned Δ508 cells originally treated with CF4/CF6
Protocol: as §1

[2] = tested on: Δ508CFTR expressing cells; experiment: Single channel currents in excised inside-out patches (PKA and ATP activation); format: cell-based, mouse; conditions: treated Δ508 cells
Protocol: as §2
Whole-cell and excised inside-out patches were obtained to assess cAMP-PKA dependent anion currents in treated Δ508 cells. Currents and command voltages were obtained and driven. respectively, with a Dagan 3900 amplifier using a 1 gigaohm headstage. The excised patch-clamp configuration was carried out as previously described [Reisin et al., (1994) J. Biol. Chem. 269, 20584-20591]. Single channel data were obtained between ±100 mV in symmetrical Cl^−. Data were further analyzed as previously described [Reisin et al., (1994) J. Biol. Chem. 269, 20584-20591]. The pipette and bathing solution contained, in mmol/L, either: NaCl 140, MgCl2 1.0, KCl 5, and N-2-hydroxyethylpiperazine N′-2-ethanesulfonic acid (HEPES) 10, at pH 7.4, or MgCl2 70, HEPES 10, pH 7.4. The bathing solution also contained 1.0 mmol/L CaCl2. […]

Δ508 cells = experiment: SPQ fluorescence assay of cAMP-stimulated Cl- transport; format: cell-based, mouse; conditions: CF4/CF6 treated Δ508 cells compared with WT1 cells; control Δ508 cells no change
Protocol: as §2
Cyclic-AMP-stimulated CY transport was also followed by fluorescence changes of cells loaded with the CY sensitive dye 6-methoxy-N-(3-sulfopropyl)quinolinium (SPQ) [Verkman, (1990) Am. J. Physiol. 259, C375-C388]. Briefly, cells were grown to partial confluence on glass coverslips. […] SPQ fluorescence was determined under an oil immersion X20 objective in a Nikon E-800 fluorescence microscope (Tokyo, Japan), with an UV filter (96101C UV-2E/C). […] Pictures were analyzed digitally with the NIH Image 1.62b7 software. SPQ cytoplasmic fluorescence values were normalized between intra-nuclear (considered as zero quenching, i.e. low Cl^−), and extracellular background. Data were expressed as percent fluorescence with respect to time zero, the time when cells were placed in an isotonic saline solution. […]

Δ508 CFTR mRNA = experiment: RT-PCR, subcloning and sequencing of CFTR mRNA; format: cell-based, human; conditions: mRNA from CF4/CF6 treated Δ508 cells (10 μM), subcloned RT-PCR products
Protocol: Total RNA isolated by Trizol® reagent according to the manufacturer's protocol (Invitrogen, CA) from either WT1 or Δ508 cells treated with or without CF6/CF4 annealed duplex oligonucleotides (final concentration of duplex in reaction mixture 10 μM) was used to perform the RT-PCR assay [Kleppe et al., (1971) J. Mol. Biol. 56, 341-361] in two steps by using a ThermoScript RT-PCR system (GIBCO, BRL). Several sets of primers were used (see CF Table 1). In the first step, total RNA (˜2 μg) was incubated for […] at 55° C. with amplification refractory mutation system (ARMS) [Ferric et al., (1992) Am. J. Hum. Genet. 51, 251-262] reverse mutant (M1) and normal (N1) primers (0.5 μg each) separately for the first-strand synthesis. In a second step, after heating at 94° C. for 5 mM, 35 cycles of PCR were carried out on the samples. PCR cycles were performed first by denaturation at 94° C. for 2 mM, annealing at 62° C. for 1 min, and extension at 72° C. for 2 min, followed by a final extension for 10 mM at 72° C. Two ARMS reverse primers (N1 and M1) [Ferric et al., (1992) Am. J. Hum. Genet. 51, 251-262], and a forward (F1) primer were used (Table 1). Similarly RT-PCR was performed with ARMS PS reverse primer (SCFR) and PS forward primer (SNF1, Table 1). RT-PCR products were separated in 3% agarose gel and subjected to automated DNA sequence analysis. […]

[3] = two step treated Δ508 cells, n=24

O=C(O)c1ccccc1Nc1ccccc1 [DPC, diphenylamine-2-carboxylate]
effect on cAMP-activated currents (CFTR; CF4/CF6 treated Δ508 cells, FIG. 1): inhibited
inhibition of cAMP-activated currents (CFTR; two step treated Δ508 cells): > 84%

CF4/CF6: 2′-O-methyl RNA/unmodified RNA oligonucleotide duplex of CF4 (SEQ ID NO: 1) and CF6 (SEQ ID NO: 2) (chain 1 mAmUmCmAmUmAmGmGmAmAmAmCmAmCmCmAmAmAmGmAmUmGmAmUmAmUmUmUmUmCmUmUmU; chain 2 {P}-rCrArUrCrUrUrUrGrGrUrG-{P}; listed as Homo sapiens)
CFTR protein made in the presence of the oligonucleotides (CFTR protein): full-length protein was made; also recorded: does not act as an inhibitor of protein synthesis
time to restoration of CFTR channel function ([1]; CF4/CF6 duplex added to Δ508 cells in tissue culture, patch clamping and SPQ quenching): 8 to 18 h
whole-cell currents in the absence of cAMP stimulation ([1]; CF4/CF6 treated cells, data not shown): sporadically showed large, DPC inhibitable whole-cell currents
cAMP-activated whole cell conductance ([1]; CF4/CF6 treated Δ508 cells, FIG. 1, untreated Δ508 cells lacked it): robust cAMP response
persistence of restored CFTR function ([1]; after cell replication and washing out of the oligonucleotide after a few days incubation): restoration of CFTR function was lost
phenotypic reversion by patch clamp ([1]; one step: CF4/CF6 duplex added without first oligonucleotide treatment step): phenotypic reversion was likewise found
increase of whole cell currents after cAMP stimulation ([1]; two step treated Δ508 cells (PS oligonucleotide 10 μM 2 h, washout, then CF4/CF6 10 μM overnight to 72 h), n=24, p<0.01): 243%
whole cell conductance after cAMP stimulation [1, 3]: 2.98±0.68 nS/Cell
whole cell conductance before cAMP stimulation [1, 3]: 0.87±0.16 nS/Cell
restored phenotype carried back to the inheritable DNA genome level (DNA genome of Δ508 cells): No evidence
single channel conductance of PKA-activated Cl- channels ([2]; excised inside-out patches): 10-12 pS and 12 pS
treated cells displaying PKA and ATP activated Cl- channels ([2]; control Δ508 cells 0/24): 10/12
change in SPQ fluorescence in response to cAMP stimulation (Δ508 cells): comparably similar change in SPQ fluorescence
UGU insertion in Δ508 mRNA (percentage of subclones showing TGT insertion) (Δ508 CFTR mRNA): 20-30%
